The results in this text go back to patent publication US11224565B2, “N-acyldipeptide derivatives and their uses” (NeoStrata Company, Inc., priority 2011, dated 2022).

What all share (assay type): in vivo, human
Holding throughout (settings): efficacy grade

The test system of assay [1] is Nerve disorders. Briefly: Summary of test results in volunteer subjects: nerve disorders. An excerpt:
(§1) In one embodiment, a composition for topical application to test its therapeutic effect was formulated by dissolving a bioactive dipeptide derivative of the present invention in a solution prepared from 40 parts water, 40 parts ethanol and 20 parts propylene glycol by volume (WEP442). In another embodiment, a composition was formulated by dissolving a bioactive dipeptide derivative of the present invention in a non-aqueous solution prepared from 80 parts ethanol and 20 parts propylene glycol by volume (EP82). In yet another embodiment, a composition was formulated first by dissolving a bioactive dipeptide derivative of the present invention in a solution prepared from 80 parts water and 20 parts propylene glycol by volume (WP82), and the solution thus prepared was mixed with an oil-in-water emulsion or cream. In another embodiment, the volunteer subject topically applied the test compositions containing N-acyldipeptide derivatives of the present invention on involved skin or lesions once or twice daily for several weeks or until the involved lesions completely cleared and clinically changed to normal skin. As a control study, the subject also topically applied a vehicle control composition on the involved skin or lesions twice daily for the same period. In yet another embodiment, the volunteer subject topically applied once or twice daily the test compositions containing N-acyldipeptide derivatives of the present invention on the skin site above arthritic joints or painful muscles to provide therapeutic effects for the systemic disorders via topical administration. Some test results are summarized as follows. ND: Nerve disorders

In assay [2] the test system is Disturbed keratinization. Put plainly: Summary of test results in volunteer subjects: disturbed keratinization.
From the text: as §1, with “DK: Disturbed keratinization” for “ND: Nerve disorders”

Assay [3] relates to Aging related changes of skin, nail and hair. Put plainly: Summary of test results in volunteer subjects: aging related changes.
From the text: as §1, with “AG: Aging related changes of skin, nail and hair” for “ND: Nerve disorders”

Assay [4] relates to Deranged immune disorders and inflammation. Put plainly: Summary of test results in volunteer subjects: deranged immune disorders and inflammation. The source says:
In one embodiment, a composition for topical application to test its therapeutic effect was formulated by dissolving a bioactive dipeptide derivative of the present invention in a solution prepared from 40 parts water, 40 parts ethanol and 20 parts propylene glycol by volume (WEP442). In another embodiment, a composition was formulated by dissolving a bioactive dipeptide derivative of the present invention in a non-aqueous solution prepared from 80 parts ethanol and 20 parts propylene glycol by volume (EP82). In yet another embodiment, a composition was formulated first by dissolving a bioactive dipeptide derivative of the present invention in a solution prepared from 80 parts water and 20 parts propylene glycol by volume (WP82), and the solution thus prepared was mixed with an oil-in-water emulsion or cream. In another embodiment, the volunteer subject topically applied the test compositions containing N-acyldipeptide derivatives of the present invention on involved skin or lesions once or twice daily for several weeks or until the involved lesions completely cleared and clinically changed to normal skin. As a control study, the subject also topically applied a vehicle control composition on the involved skin or lesions twice daily for the same period. In yet another embodiment, the volunteer subject topically applied once or twice daily the test compositions containing N-acyldipeptide derivatives of the present invention on the skin site above arthritic joints or painful muscles to provide therapeutic effects for the systemic disorders via topical administration. Some test results are summarized as follows. DI: Deranged immune disorders and inflammation

The structures appear in SMILES notation. Peptide text beside a SMILES is read from it.

Turning to `CC(=O)Nc1ccccc1C(=O)NCC(N)=O` [N-Ac-Abz-Gly-NH2], the ND in assay [1] was 3+ (3+: 75% Efficacy). For the same compound, in assay [2], the DK is 2+ (2+: 50% Efficacy). The AG in assay [3] is recorded as 2+ (2+: 50% Efficacy). Further, the DI in assay [4] is listed as 3+ (3+: 75% Efficacy).
`CC(=O)NCCCC(=O)NCC(N)=O` [N-Ac-Gaba-Gly-NH2]: the ND in assay [1] is 2+ (2+: 50% Efficacy). Moreover, the DK in assay [2] is recorded as 2+ (2+: 50% Efficacy). The AG in assay [3] is recorded as 2+ (2+: 50% Efficacy). The DI in assay [4] is listed as 2+ (2+: 50% Efficacy).
With `CC(=O)NCC(=O)NCC(N)=O` [N-Ac-Gly-Gly-NH2], the ND in assay [1] is listed as 2+ (2+: 50% Efficacy). The DK in assay [2] was 2+ (2+: 50% Efficacy). For the same compound, the AG in assay [3] was 2+ (2+: 50% Efficacy). The DI in assay [4] was 2+ (2+: 50% Efficacy).
For the compound `CC(=O)NCC(=O)N1CCC[C@H]1C(N)=O` [N-Ac-Gly-L-Pro-NH2] (Ac-Gly-Pro-NH2), the ND in assay [1] is listed as 2+ (2+: 50% Efficacy). The DK in assay [2] is listed as 2+ (2+: 50% Efficacy). Further, in assay [3], the AG is on record as 2+ (2+: 50% Efficacy). For the same compound, the DI in assay [4] was 2+ (2+: 50% Efficacy).
As for `CC[C@H](C)[C@H](NC(=O)[C@H](C)NC(C)=O)C(N)=O` [N-Ac-L-Ala-L-Ile-NH2] (Ac-Ala-Ile-NH2), the ND in assay [1] is listed as 3+ (3+: 75% Efficacy). Besides, the DK in assay [2] was 2+ (2+: 50% Efficacy). Moreover, the AG in assay [3] is reported as 2+ (2+: 50% Efficacy). The DI in assay [4] is 3+ (3+: 75% Efficacy).
Turning to `CC(=O)N[C@@H](CC(N)=O)C(=O)NCC(N)=O` [N-Ac-L-Asn-Gly-NH2] (Ac-Asn-Gly-NH2), in assay [1], the ND was 2+ (2+: 50% Efficacy). The DK in assay [2] was 2+ (2+: 50% Efficacy). Also, the AG in assay [3] is given as 2+ (2+: 50% Efficacy). Further, in assay [4], the DI is 2+ (2+: 50% Efficacy).
For `CC(=O)N[C@@H](CS)C(=O)NCC(N)=O` [N-Ac-L-Cys-Gly-NH2], the ND in assay [1] was 2+ (2+: 50% Efficacy). The DK in assay [2] is 2+ (2+: 50% Efficacy). In addition, the AG in assay [3] is 2+ (2+: 50% Efficacy). In addition, the DI in assay [4] is 2+ (2+: 50% Efficacy).
Consider `CC(=O)N[C@@H](CS)C(=O)N[C@@H](CS)C(=O)O` [N-Ac-L-Cys-L-Cys-OH] (Ac-Cys-Cys-OH), for which the ND in assay [1] was 2+ (2+: 50% Efficacy). The DK in assay [2] is 2+ (2+: 50% Efficacy). In assay [3], the AG is listed as 3+ (3+: 75% Efficacy). Moreover, the DI in assay [4] is on record as 2+ (2+: 50% Efficacy).
In the case of `CC(=O)N[C@@H](CCC(N)=O)C(=O)NCC(N)=O` [N-Ac-L-Gln-Gly-NH2] (Ac-Gln-Gly-NH2), the ND in assay [1] is listed as 2+ (2+: 50% Efficacy). Further, the DK in assay [2] is recorded as 2+ (2+: 50% Efficacy). In addition, the AG in assay [3] is 2+ (2+: 50% Efficacy). The DI in assay [4] was 2+ (2+: 50% Efficacy).
With `CC(=O)N[C@@H](Cc1c[nH]cn1)C(=O)NCC(N)=O` [N-Ac-L-His-Gly-NH2] (Ac-His-Gly-NH2), the ND in assay [1] is reported as 2+ (2+: 50% Efficacy). In addition, in assay [2], the DK is 2+ (2+: 50% Efficacy). The AG in assay [3] was 2+ (2+: 50% Efficacy). For the same compound, in assay [4], the DI is recorded as 2+ (2+: 50% Efficacy).
Turning to `CC[C@H](C)[C@H](NC(C)=O)C(=O)NCC(N)=O` [N-Ac-L-Ile-Gly-NH2] (Ac-Ile-Gly-NH2), in assay [1], the ND is 4+ (4+: 95-100% Efficacy). The DK in assay [2] is recorded as 3+ (3+: 75% Efficacy). Moreover, in assay [3], the AG is recorded as 3+ (3+: 75% Efficacy). Also, the DI in assay [4] was 4+ (4+: 95-100% Efficacy).
For `CC[C@H](C)[C@H](NC(C)=O)C(=O)NCC(=O)O` [N-Ac-L-Ile-Gly-OH] (Ac-Ile-Gly-OH), the ND in assay [1] is reported as 4+ (4+: 95-100% Efficacy). Also, the DK in assay [2] is 2+ (2+: 50% Efficacy). For the same compound, the AG in assay [3] is reported as 2+ (2+: 50% Efficacy). Also, in assay [4], the DI is 3+ (3+: 75% Efficacy).
With `CC[C@H](C)[C@H](NC(C)=O)C(=O)N[C@@H](C)C(N)=O` [N-Ac-L-Ile-L-Ala-NH2] (Ac-Ile-Ala-NH2), the ND in assay [1] is listed as 4+ (4+: 95-100% Efficacy). In addition, the DK in assay [2] is 2+ (2+: 50% Efficacy). Further, the AG in assay [3] is 2+ (2+: 50% Efficacy). Besides, the DI in assay [4] is reported as 4+ (4+: 95-100% Efficacy).
`CC[C@H](C)[C@H](NC(C)=O)C(=O)N[C@@H](C)C(=O)O` [N-Ac-L-Ile-L-Ala-OH] (Ac-Ile-Ala-OH): the ND in assay [1] is 2+ (2+: 50% Efficacy). Further, the DK in assay [2] is 2+ (2+: 50% Efficacy). Also, the AG in assay [3] was 2+ (2+: 50% Efficacy). In addition, the DI in assay [4] is on record as 2+ (2+: 50% Efficacy).
In the case of `CC[C@H](C)[C@H](NC(=O)[C@@H](NC(C)=O)[C@@H](C)CC)C(N)=O` [N-Ac-L-Ile-L-Ile-NH2] (Ac-Ile-Ile-NH2), the ND in assay [1] is 4+ (4+: 95-100% Efficacy). In addition, the DK in assay [2] is 3+ (3+: 75% Efficacy). The AG in assay [3] is given as 2+ (2+: 50% Efficacy). In addition, in assay [4], the DI is on record as 3+ (3+: 75% Efficacy).
As to `CC[C@H](C)[C@H](NC(C)=O)C(=O)N[C@@H](Cc1ccc(O)cc1)C(N)=O` [N-Ac-L-Ile-L-Tyr-NH2] (Ac-Ile-Tyr-NH2), the ND in assay [1] is listed as 2+ (2+: 50% Efficacy). In assay [2], the DK is given as 2+ (2+: 50% Efficacy). Also, the AG in assay [3] is 2+ (2+: 50% Efficacy). Further, the DI in assay [4] was 2+ (2+: 50% Efficacy).
`CC(=O)N[C@@H](CC(C)C)C(=O)NCC(=O)O` [N-Ac-L-Leu-Gly-OH] (Ac-Leu-Gly-OH): in assay [1], the ND is reported as 3+ (3+: 75% Efficacy). Moreover, the DK in assay [2] was 2+ (2+: 50% Efficacy). Moreover, the AG in assay [3] is 2+ (2+: 50% Efficacy). Moreover, the DI in assay [4] is recorded as 3+ (3+: 75% Efficacy).
As for `CC(=O)N[C@@H](CC(C)C)C(=O)N[C@@H](C)C(N)=O` [N-Ac-L-Leu-L-Ala-NH2] (Ac-Leu-Ala-NH2), the ND in assay [1] is 4+ (4+: 95-100% Efficacy). The DK in assay [2] was 3+ (3+: 75% Efficacy). For the same compound, the AG in assay [3] is given as 3+ (3+: 75% Efficacy). In addition, the DI in assay [4] is listed as 4+ (4+: 95-100% Efficacy).
For the compound `CC(=O)N[C@@H](CC(C)C)C(=O)N[C@@H](C)C(=O)O` [N-Ac-L-Leu-L-Ala-OH] (Ac-Leu-Ala-OH), the ND in assay [1] is recorded as 3+ (3+: 75% Efficacy). Moreover, the DK in assay [2] is on record as 2+ (2+: 50% Efficacy). Moreover, in assay [3], the AG was 2+ (2+: 50% Efficacy). Also, the DI in assay [4] is 3+ (3+: 75% Efficacy).
Turning to `CC(=O)N[C@@H](CC(C)C)C(=O)N[C@@H](CC(C)C)C(N)=O` [N-Ac-L-Leu-L-Leu-NH2], the ND in assay [1] is reported as 2+ (2+: 50% Efficacy). For the same compound, in assay [2], the DK is 2+ (2+: 50% Efficacy). In addition, the AG in assay [3] is reported as 2+ (2+: 50% Efficacy). In assay [4], the DI is listed as 2+ (2+: 50% Efficacy).
